From ChEMBL document CHEMBL1201862, “PubChem BioAssay data set” (2004)
Active and inactive are the calls of the source.

What was measured:
[1] = test system: Streptococcus sp. 'group A'; assay: growth inhibition of control SK(-) GAS strain, dose response, counter-screen for streptokinase expression inhibitor project, luminescence, kanamycin, BacTiterGlo, confirmation (AID 1900); format: functional, organism-based
Streptokinase A = molecular target: T1, Streptokinase A (Streptococcus pyogenes serotype M1, UniProt P10520); assay: S. pyogenes streptokinase expression inhibitors, potency, dose response, plasminogen activation absorbance, OD405 (AID 1914); format: functional, Streptococcus pyogenes M1 GAS;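 also: secreted streptokinase activity via plasminogen activation per viability signal from cell pellet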
T1 sequence (P10520 whole entry): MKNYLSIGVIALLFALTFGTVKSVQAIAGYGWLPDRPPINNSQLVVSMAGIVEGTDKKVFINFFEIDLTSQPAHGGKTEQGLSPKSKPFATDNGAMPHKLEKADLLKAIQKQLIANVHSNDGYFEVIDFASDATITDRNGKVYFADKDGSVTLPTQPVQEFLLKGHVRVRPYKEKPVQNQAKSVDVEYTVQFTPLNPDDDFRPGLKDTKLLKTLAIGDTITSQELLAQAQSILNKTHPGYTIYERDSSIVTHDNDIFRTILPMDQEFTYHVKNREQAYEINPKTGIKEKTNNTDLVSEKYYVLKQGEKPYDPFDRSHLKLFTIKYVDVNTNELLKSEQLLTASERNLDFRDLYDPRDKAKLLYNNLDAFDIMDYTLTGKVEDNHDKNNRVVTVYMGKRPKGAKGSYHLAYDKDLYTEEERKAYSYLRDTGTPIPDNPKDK

Mucolipin-3 = molecular target: T2, Mucolipin-3 (Homo sapiens, UniProt Q8TDD5); assay: Fluorescence counterscreen assay for […] agonists: dose response cell-based high-throughput screening assay to identify agonists of the transient receptor potential channel ML3 (TRPML3). [Related pubchem assays: 1424, 1448 ]; format: functional
T2 sequence (Q8TDD5 whole entry): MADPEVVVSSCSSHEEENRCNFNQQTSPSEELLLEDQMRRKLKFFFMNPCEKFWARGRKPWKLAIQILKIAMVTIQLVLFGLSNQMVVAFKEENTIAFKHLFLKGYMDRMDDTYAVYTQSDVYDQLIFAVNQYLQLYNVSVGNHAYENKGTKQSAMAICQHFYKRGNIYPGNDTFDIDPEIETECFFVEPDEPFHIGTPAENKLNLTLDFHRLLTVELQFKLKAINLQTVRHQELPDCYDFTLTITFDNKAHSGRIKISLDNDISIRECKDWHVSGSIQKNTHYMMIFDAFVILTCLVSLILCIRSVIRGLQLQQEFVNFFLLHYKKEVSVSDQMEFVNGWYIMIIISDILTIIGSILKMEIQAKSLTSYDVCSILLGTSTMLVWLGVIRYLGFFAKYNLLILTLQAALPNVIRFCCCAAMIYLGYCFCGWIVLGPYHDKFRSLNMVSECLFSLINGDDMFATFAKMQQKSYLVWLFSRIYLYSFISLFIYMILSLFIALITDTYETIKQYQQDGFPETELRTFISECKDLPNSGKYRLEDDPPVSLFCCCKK

[2] = control 3'UTR Renilla luciferase suppression, dose response, counter-screen for Shn3 inhibitor project, cell-based, Clone20-Shn3RL, cherry-picked (AID 624133); format: functional
[3] = Shn3 3'UTR reporter inhibitors, dose response, cell-based, Clone20 osteoblasts, firefly luciferase, cherry-picked (AID 624132); format: functional;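 also: firefly luciferase luminescence from reporter carrying the Shn3 3'UTR in osteoblasts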
Streptococcus = assay: Group A Streptococcus viability loss, dose response, counter-screen for streptokinase expression inhibitor project, luminescence, BacTiterGlo (AID 1915); format: functional, organism-based;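 also: potency for reduction of bacterial viability or growth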
[4] = HIV-1 Env-mediated cell fusion inhibitors, dose response, CCR5-tropic Env (AID 2279); format: functional
[5] = HepG2 cell cytotoxicity, dose response, cytotoxicity control for Shn3 inhibitor project, CellTiter-Glo, cherry-picked (AID 624134); format: functional, cell-based
Ion channel NompC = Ion channel NompC (Danio rerio, UniProt Q7T1G6); assay: Dose response cell-based high-throughput screening assay for agonists of the transient receptor potential channel N1 (TRPN1). [Related pubchem assays (depositor defined):AID1424, AID1448]; format: functional
[6] = Luminescence Cell-Based Dose Retest to Confirm Inhibitors of Cancer Stem Cells. [Related pubchem assays (depositor defined):AID2717, AID2721]; format: functional; conditions: Homo sapiens
Bcl-2-related protein A1 = molecular target: T3, Bcl-2-related protein A1 (Mus musculus, UniProt Q07440); format: functional;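 also: confirmatory dose–response counterscreen on Bfl-1, used to check hits from a UBC13 polyubiquitin inhibitor campaign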
T3 sequence (Q07440 whole entry): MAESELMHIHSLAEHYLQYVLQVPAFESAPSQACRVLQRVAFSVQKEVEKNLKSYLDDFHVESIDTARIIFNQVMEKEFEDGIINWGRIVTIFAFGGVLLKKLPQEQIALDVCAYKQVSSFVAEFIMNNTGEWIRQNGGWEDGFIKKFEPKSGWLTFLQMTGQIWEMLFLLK

[7] = molecular target: T4, Ubiquitin-conjugating enzyme E2 N (Homo sapiens, UniProt P61088); format: functional
T4 sequence (P61088 whole entry): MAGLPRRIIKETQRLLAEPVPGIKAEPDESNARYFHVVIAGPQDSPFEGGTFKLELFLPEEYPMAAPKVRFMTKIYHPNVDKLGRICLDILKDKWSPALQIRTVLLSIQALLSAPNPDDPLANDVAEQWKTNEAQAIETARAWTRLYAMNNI

[8] = molecular target: T4, Ubiquitin-conjugating enzyme E2 N; format: functional; remark: listed apart in the source
[9] = molecular target: Mannose-6-phosphate isomerase (Homo sapiens, UniProt P34949); assay: human PMI inhibitors, high substrate, primary screen, biochemical, fluorescence intensity, high mannose 6-phosphate (AID 1220)
[10] = molecular target: T5, Alkaline phosphatase, tissue-nonspecific isozyme (Homo sapiens, UniProt P05186); assay: human TNAP enzyme inhibitors, SAR follow-up, biochemical, luminescent, dose response (AID 1056)
T5 sequence (P05186 whole entry): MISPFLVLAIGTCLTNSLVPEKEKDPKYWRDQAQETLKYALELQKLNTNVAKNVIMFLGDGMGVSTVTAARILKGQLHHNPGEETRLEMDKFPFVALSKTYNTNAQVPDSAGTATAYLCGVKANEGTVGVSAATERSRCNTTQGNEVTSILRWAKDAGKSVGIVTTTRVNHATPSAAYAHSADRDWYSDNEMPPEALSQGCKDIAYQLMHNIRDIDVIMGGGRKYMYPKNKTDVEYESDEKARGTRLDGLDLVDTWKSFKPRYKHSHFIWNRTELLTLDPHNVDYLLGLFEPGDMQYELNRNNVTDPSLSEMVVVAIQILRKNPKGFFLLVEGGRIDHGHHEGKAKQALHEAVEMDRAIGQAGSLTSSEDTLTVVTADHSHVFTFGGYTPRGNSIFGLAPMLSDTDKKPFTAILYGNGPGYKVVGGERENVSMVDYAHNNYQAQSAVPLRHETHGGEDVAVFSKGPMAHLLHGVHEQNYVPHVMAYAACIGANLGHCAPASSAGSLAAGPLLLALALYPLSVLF

[11] = molecular target: Alkaline phosphatase, placental type (Homo sapiens, UniProt P05187); assay: PLAP enzyme inhibitors, confirmation, biochemical, luminescence (AID 1512); format: functional
[12] = molecular target: G-protein coupled receptor 55 (Homo sapiens, UniProt Q9Y2T6); assay: GPR55 antagonists, SAR follow-up, counter-screen for GPR35 antagonist project, imaging, image-based (AID 2397); format: functional
[13] = molecular target: T6, Replicative DNA helicase DnaB (Mycobacterium tuberculosis, UniProt P9WMR3); assay: DnaB intein splicing inhibitors, dose response, biochemical, cell-free fluorescence (AID 449749); format: functional
T6 sequence (P9WMR3 whole entry): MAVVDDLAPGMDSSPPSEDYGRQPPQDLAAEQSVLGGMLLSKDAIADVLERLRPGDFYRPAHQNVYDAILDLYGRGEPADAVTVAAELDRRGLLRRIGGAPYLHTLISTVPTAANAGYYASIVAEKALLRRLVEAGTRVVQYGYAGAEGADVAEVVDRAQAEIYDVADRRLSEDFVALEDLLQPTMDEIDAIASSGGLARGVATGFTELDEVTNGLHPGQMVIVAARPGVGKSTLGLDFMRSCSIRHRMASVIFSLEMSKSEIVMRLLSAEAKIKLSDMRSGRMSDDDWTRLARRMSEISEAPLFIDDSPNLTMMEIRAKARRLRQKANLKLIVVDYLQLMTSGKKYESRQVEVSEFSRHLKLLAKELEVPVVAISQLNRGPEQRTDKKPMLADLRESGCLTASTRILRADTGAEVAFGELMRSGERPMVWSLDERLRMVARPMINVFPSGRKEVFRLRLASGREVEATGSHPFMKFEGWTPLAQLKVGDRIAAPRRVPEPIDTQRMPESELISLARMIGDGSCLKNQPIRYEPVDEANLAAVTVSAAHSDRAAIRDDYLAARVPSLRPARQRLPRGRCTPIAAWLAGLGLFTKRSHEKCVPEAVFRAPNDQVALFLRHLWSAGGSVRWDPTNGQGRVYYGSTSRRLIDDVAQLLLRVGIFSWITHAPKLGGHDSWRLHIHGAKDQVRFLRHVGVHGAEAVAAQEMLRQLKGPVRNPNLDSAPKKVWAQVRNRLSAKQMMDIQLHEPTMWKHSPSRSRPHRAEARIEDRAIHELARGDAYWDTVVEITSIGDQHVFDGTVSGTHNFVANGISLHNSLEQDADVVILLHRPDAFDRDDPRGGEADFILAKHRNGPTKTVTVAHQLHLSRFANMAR

Protein RecA = molecular target: T7, Protein RecA (Mycobacterium tuberculosis, UniProt P9WHJ3); assay: Fluorescence Cell-Free Homogeneous Dose Retest to Identify Inhibitors of RecA-Intein Splicing Activity. [Related pubchem assays (depositor defined):AID2097, AID2223, AID489010, AID492950]; format: functional
T7 sequence (P9WHJ3 whole entry): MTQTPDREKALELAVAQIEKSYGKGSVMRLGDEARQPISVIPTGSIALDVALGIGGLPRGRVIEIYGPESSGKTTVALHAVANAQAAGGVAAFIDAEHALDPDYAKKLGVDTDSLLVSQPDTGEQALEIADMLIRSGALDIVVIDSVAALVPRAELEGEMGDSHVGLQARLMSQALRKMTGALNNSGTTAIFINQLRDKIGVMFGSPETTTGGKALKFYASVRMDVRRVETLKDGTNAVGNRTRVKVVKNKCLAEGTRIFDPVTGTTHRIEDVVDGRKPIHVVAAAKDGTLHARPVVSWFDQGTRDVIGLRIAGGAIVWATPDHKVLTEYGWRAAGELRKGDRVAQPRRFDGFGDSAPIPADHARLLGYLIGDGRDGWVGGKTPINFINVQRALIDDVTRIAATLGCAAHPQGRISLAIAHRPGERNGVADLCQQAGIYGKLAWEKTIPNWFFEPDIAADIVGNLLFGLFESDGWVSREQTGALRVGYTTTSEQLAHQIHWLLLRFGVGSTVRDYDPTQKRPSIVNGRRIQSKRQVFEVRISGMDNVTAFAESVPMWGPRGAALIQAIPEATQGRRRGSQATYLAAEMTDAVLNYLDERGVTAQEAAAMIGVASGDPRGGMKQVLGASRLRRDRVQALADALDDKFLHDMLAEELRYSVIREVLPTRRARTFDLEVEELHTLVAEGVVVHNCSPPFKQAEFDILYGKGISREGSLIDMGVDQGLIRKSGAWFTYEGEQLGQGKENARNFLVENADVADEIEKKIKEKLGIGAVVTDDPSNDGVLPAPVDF

[14] = cytotoxicity in MIN6 insulinoma cells, dose response, cytotoxicity control, cell-based, mouse insulinoma (AID 2122); format: functional;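 also: confirmatory high-throughput counterscreen run to flag cytotoxic compounds; mouse MIN-6 beta cells carrying an insulin promoter eGFP reporter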
[15] = inhibitors of intracellular T. cruzi replication, confirmation, NIH3T3 host cells, beta-gal luminescence (AID 2044); format: functional, cell-based;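 also: intracellular parasites grown in NIH/3T3 mouse fibroblasts as host cells; luminescent beta-galactosidase reporter signal from transgenic T. cruzi replicating inside host cells; inhibitors lower the luminescence signal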
cells [16] = format: functional, cell-based
[17] = insulin promoter down-regulators in MIN6 cells, imaging, high-content screening, mouse beta cells (AID 1628); format: functional
cells [18] = format: functional, cell-based; remark: listed apart in the source
Troponin, cardiac muscle = Troponin, cardiac muscle (Homo sapiens, UniProt P19429+P45379+P63316); assay: Fluorescence-based biochemical high throughput dose response assay for activators of the calcium sensitivity of cardiac Regulated Thin Filaments (RTF). [Related pubchem assays (depositor defined):AID493008, AID493018, AID504382, AID504383]; format: protein-complex assay
[19] = THP-1 cell cytotoxicity, dose response, cytotoxicity control for non-replicating M. tuberculosis project (AID 489025); format: functional
cells [20] = format: functional
[21] = Vero E6 cell cytotoxicity, dose response, cytotoxicity control for non-replicating M. tuberculosis project, secondary assay (AID 492998); format: functional, VeroE6; conditions: Vero C1008
[22] = molecular target: Microphthalmia-associated transcription factor (Homo sapiens, UniProt O75030); assay: TRPM1 promoter luciferase signal decrease, dose response, MITF inhibitor project, cell-based, SK-MEL-5, cherry-picked, set 3 (AID 493073); format: functional

## O=C(Nc1ccccc1Cc1ccccc1)c1ccccc1NS(=O)(=O)c1ccc(Cl)s1
[1]
  EC50: 0.659 µM (active)
Streptokinase A
  EC50: > 150 µM (not active)
Mucolipin-3
  EC50: 24.3 µM (not active)
[2]
  AC50: 18.2 µM (active)
[3]
  AC50: 8.18 µM (active)
Streptococcus
  EC50: 4.09 µM (active)
[4]
  IC50: 2.17 µM (active)
[5]
  AC50: 14.7 µM (active)
Ion channel NompC
  EC50: > 29.9 µM (inactive)
[6]
  AC50: 0.706 µM (active)

## COc1ccccc1NC(=O)COc1ccc(C(=O)NCc2ccccc2)cc1OC
Bcl-2-related protein A1
  IC50: > 20 µM (inactive)
[7]
  IC50: 13 µM (active)
[8]
  IC50: > 20 µM (inactive)

## COC(=O)C(N)Cc1ccc(O)c(O)c1 (stereo unspecified)
[9]
  IC50: > 50 µM (not active)
[10]
  IC50: > 100 µM (inactive)
[11]
  IC50: 8.43 µM (active)

## O=C(CCCN1C(=O)/C(=C\c2ccccc2)SC1=S)Nc1ccc(O)cc1
[12]
  IC50: > 32 µM (inactive)
[13]
  AC50: 39 µM (active)
Protein RecA
  EC50: 27.8 µM (active)

## COc1cc(C(=O)Oc2ccccc2/C=N/NC(=O)c2ccc(Cl)cc2)cc(OC)c1OC
[14]
  IC50: 1.99 µM (active)
[15]
  EC50: 1.31 µM (active)
Cells [16]
  EC50: 9.29 µM (active)
[17]
  IC50: 2.12 µM (active)
Cells [18]
  EC50: > 350 µM (not active)
Troponin, cardiac muscle
  EC50: > 71.5 µM (inactive)

## Cc1ccc(C(=O)N/N=C\c2ccc([N+](=O)[O-])s2)cn1
[19]
  CC50: 26.2 µM (active)
Cells [20]
  IC50: 4.87 µM (active)
[21]
  CC50: 13.1 µM (active)
[22]
  AC50: 2.95 µM (active)

## N#C/C(=C\c1ccccn1)c1nc2ccccc2s1
Mucolipin-3
  EC50: > 1.11 µM (not active)
Ion channel NompC
  EC50: 0.672 µM (active)
